Values quoted from earlier work as cited in US9945862B2, “Biomarkers for predicting and assessing responsiveness of thyroid and kidney cancer subjects to lenvatinib compounds” (Eisai R&D Management Co., Ltd., priority 2011, dated 2018).

Tested on: xenograft models of various tumors
Conditions: by inhibiting angiogenesis; cited from earlier work

With COc1cc2nccc(Oc3ccc(NC(=O)NC4CC4)c(Cl)c3)c2cc1C(N)=O [Lenvatinib, 4-(3-chloro-4(cyclopropylaminocarbonyl)aminophenoxy)-7-methoxy-6-quinolinecarboxamide] as the compound, how does the Anti-tumor effect read?
The Anti-tumor effect was “potent anti-tumor effects”.
